Results taken from patent publication US20260053767A1, “Hepatoprotective Compositions And Methods” (Jemyll, Ltd., priority 2022, published 2026).
“Also recorded” adds a separate entry of the source.

Key:
Wistar rats = test: Glucose challenge test and body weight in rats on high fat/high cholesterol diet, water with DDA at 1% of caloric intake; type: in vivo
Excerpt: Animal Studies. All in vivo studies used Wistar rats that were kept for 9 weeks on a high fat/high cholesterol diet. The animals were then separated into two groups, a control group that continued the high fat/high cholesterol diet with regular water, whereas the treatment group continued the high fat/high cholesterol diet with water containing DDA (dodecanedioic acid) in an amount of 1% of the caloric intake. After all animals were separated in the respective test groups, body weights were recorded, and a glucose challenge test administered. […] Such effect is particularly unexpected as the quantity of DDA in the food was well below any quantity that was reasonably expected.

liver of rats = test: qReal time-PCR gene expression in the liver of rats from in vivo study 1 and 2; design: species or system Wistar rats
Procedure: Panels A and B. • Study 1: Twenty adult Wistar rats, aged 8-10 weeks, were included in the study. The rats were housed in individual cages at 22° C. with 12-h light cycles and had ad libitum access to food and water. Rats were fed a high fat high cholesterol diet (44% Carbohydrate, 14% Protein, 42% fat+0.2% Cholesterol) for 4 weeks in the presence or absence of 1% Dodecanedioic acid, sodium salt dissolved in the water (FIG. 25, Panel A). Body weight and food/water intake were monitored weekly. • Study 2: Twenty adult Wistar rats, aged 8-10 weeks, were included in the study. The rats were housed in individual cages at 22° C. with 12-h light cycles and had ad libitum access to food and water. Rats were fed a high fat-high cholesterol diet (44% Carbohydrate, 14% Protein, 42% fat+0.2% Cholesterol). After 9 weeks of diet, rats were randomly assigned to one of the following groups: 4 weeks of high fat-high cholesterol diet or 4 weeks of high fat-high cholesterol diet and 1% Dodecanedioic acid, sodium salt dissolved in the water (FIG. 25, Panel B). Body weight and food/water intake were monitored weekly.
(§1) Total RNA from human primary hepatocytes was extracted using the RNeasy Plus Mini Kit according to the indications provided by the company. A small aliquot of total RNA obtained (3 μl) was subjected to qualitative and quantitative control by using the microdrop. The qualitative and quantitative assessment of the individual samples was determined using a dedicated software. The total RNA was reverse transcribed into cDNA by using iScript RT. SYBR Green gene expression assays were performed according to the manufacturer's instruction using the iQTMSYBR Green Supermix and the CFX96 Touch Real-Time PCR Detection System. For this purpose, the following pairs of primer were used: solute carrier family 13 member 5 (SLC13A5) (forward 5′ […] 3′ (SEQ ID NO:1) and reverse 5′ […] 3′ (SEQ ID NO:2)), Diacylglycerol O-Acyltransferase 1 (DGAT1) (forward 5′ […] 3′ (SEQ ID NO:3) and reverse 5′ […] 3′ (SEQ ID NO:4)), Fatty Acid Synthase (FASN) (forward 5′ […] 3′ (SEQ ID NO:5) and reverse 5′ […] 3′ (SEQ ID NO:6)), carnitine palmitoyltransferase 1A (CPT1A) (forward 5′ […] 3′ (SEQ ID NO:7) and reverse 5′ […] 3′ (SEQ ID NO:8)) and Acetyl-CoA carboxylase (ACC1) (forward 5′ […] 3′ (SEQ ID NO:9) and reverse 5′ […] 3′ (SEQ ID NO:10)). mRNA expression levels were normalized to B2-microglobulin (forward 5′[…] 3′ (SEQ ID NO:11); and reverse 5′[…] 3′ (SEQ ID NO:12)) and quantification of relative gene expression, presented as percentage of the relevant baseline, was calculated using the 2-ACT (comparative threshold) method.
C12 decrease de novo lipogenesis and an increase in fatty acid oxidation in vitro and in vivo: To test the hypothesis that C12 could affect de novo lipogenesis and fatty acid beta-oxidation, human primary hepatocytes were stimulated with palmitic acids (0.4 mM) in the presence or absence of C12 1% (v/w). […] Similar results were also observed in our in vivo experiments. […] Data from in vivo study 1 and 2 were pooled together.

[1] = test system: primary human hepatocytes; test: In vitro citrate uptake; type: cell-based; details: citrate 150 μM; for citrate uptake: vs untreated cells
Procedure: (§2) Isolation of human primary hepatocytes: Tissue obtained during percutaneous liver biopsy, was diced (<3 mm) and washed in HBSS to remove excess blood. Tissue was then transferred to a tube containing pre-warmed EGTA buffer (HBSS, 0.5 mM EGTA, 0.5% fatty acid free bovine serum albumin (BSA)) and agitated (100 rpm) in a water bath with shaking bed for 10 min, 37° C. After three washes, to remove the remaining blood and EGTA, the tissue was placed in pre-warmed digestion buffer (HBSS, 0.05% collagenase IV, 0.5% fatty acid free BSA, 10 mM CaC12) and agitated (100 rpm) in a water bath with shaking bed for 30 min, 37° C. The digested tissue was filtered through 100 μm cell strainer while the remaining tissue was again digested in fresh digestion buffer (20). Cell suspensions were pooled and centrifuged at 80 g for 5 min, 4° C. and the supernatant discarded. Cells were grown until confluent and used for citrate uptake analysis.
In vitro Citrate Uptake: Primary human hepatocytes were incubated with or without Dodecanedioic acid, sodium salt (0.1-0.25-0.5-1-1.5% w/vol) for 30 minutes. Following the incubation step, citrate was added at a final concentration of 150 μM for 40 minutes. At the end of the stimulation citrate uptake was assessed by a commercial Citrate Assay Kit and data analyzed with Varioskan LUX multimode microplate reader.

[2] = test system: primary human hepatocytes; test: In vitro palmitic acid stimulation, gene expression by quantitative real-time PCR; type: cell-based
Procedure: as §1, §2
At the end of the stimulation de novo lipogenesis, fatty acid beta-oxidation and SLC13A5 gene expression were assessed by Quantitative Real-Time PCR Analysis.

[3] = NIDDM patients, intravenous infusion; cited from earlier work
[4] = in vivo study 1 and 2 pooled, vs control group
[5] = rats from in vivo study 1 and 2, vs control group
[6] = primary human hepatocytes, C12 1% (v/w) with palmitic acid 0.4 mM, vs palmitic acid alone

O=C(O)CCCCCCCCCCC(=O)O [DDDA, dodecanedioic acid]
AUC blood glucose in glucose challenge (Wistar rats): significantly reduced
blood glucose spike in glucose challenge (Wistar rats): significantly blunted
ACC1 (de novo lipogenesis enzyme) in liver (liver of rats; [4]): decrease
CPT1A (fatty acid beta-oxidation enzyme) in liver (liver of rats; [4]): significant increase
DGAT (de novo lipogenesis enzyme) in liver (liver of rats; [4]): decrease
FASN (de novo lipogenesis enzyme) in liver (liver of rats; [4]): decrease
gene expression of citrate transporter SLC13A5 in liver (liver of rats; [4]): decrease
COLA1A gene expression in liver (liver of rats; [5]): decreased expression
TGFβ gene expression in liver (liver of rats; [5]): decreased expression
αSMA gene expression in liver (liver of rats; [5]): decreased expression
citrate uptake ([1]; C12 1% (v/w)): significant decrease
citrate uptake ([1]; C12 1.5% (v/w)): significant decrease
citrate uptake (figure legend) ([1]; C12 0.1-1.5% v/w): inhibits citrate uptake
gene expression of citrate transporter SLC13A5 ([2]; human hepatocytes, C12 1% (v/w) with palmitic acid 0.4 mM, vs palmitic acid alone, listed as C12): significant decrease; also recorded: reducing citrate transporter SLC13A5
DNL in primary hepatocytes (figure legend) ([2]; palmitic acid 0.4 mM, C12 1%): reduces
ACC1 (de novo lipogenesis enzyme) [2, 6]: significant reduction
CPT1A (fatty acid beta-oxidation enzyme) [2, 6]: significant increase
DGAT (de novo lipogenesis enzyme) [2, 6]: significant reduction
FASN (de novo lipogenesis enzyme) [2, 6]: significant reduction
plasma glucose levels during infusion [3]: significantly decreased
